Reference: patent US5684151A, “1-arylsulphonyl, arylcarbonyl and 1-arylphosphonyl-3-phenyl-1,4,5,6-tetrahydropyridazines” (priority 1995, dated 1997)
Like-named read-outs stand apart in the source and are kept apart here.

Legend:
[1] = test system: mouse (MC3T3-E1) and human (TE-85) osteoblast-line cells; type: cell-based
How it was run: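 MC3T3-E1 or TE-85 cells were plated overnight in DMEM/25 mM HEPES/10% FBS and then preincubated 24 h in 0.1% FBS. Compounds were added for 20 h, followed by a 4 h pulse of 0.4 μCi ^3H-thymidine. Incorporated radioactivity served as the proliferation index, expressed as % of control (control = 100%).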

[2] = molecular target: T1, progestin receptor from rabbit uterus (Oryctolagus cuniculus, UniProt P06186); assay: Progestin receptor binding (3H-R5020 displacement); conditions: rabbit uterine cytosol, 4° C., 18 h, read-out: IC50: Binding affinity for the progestin receptor from rabbit uterus
T1 construct: Cytosolic progestin receptor were obtained by mixing rabbit uterine tissue with a Tris buffer; from tissue; host or cells: rabbit uterus cytosol
T1 sequence (P06186 whole entry): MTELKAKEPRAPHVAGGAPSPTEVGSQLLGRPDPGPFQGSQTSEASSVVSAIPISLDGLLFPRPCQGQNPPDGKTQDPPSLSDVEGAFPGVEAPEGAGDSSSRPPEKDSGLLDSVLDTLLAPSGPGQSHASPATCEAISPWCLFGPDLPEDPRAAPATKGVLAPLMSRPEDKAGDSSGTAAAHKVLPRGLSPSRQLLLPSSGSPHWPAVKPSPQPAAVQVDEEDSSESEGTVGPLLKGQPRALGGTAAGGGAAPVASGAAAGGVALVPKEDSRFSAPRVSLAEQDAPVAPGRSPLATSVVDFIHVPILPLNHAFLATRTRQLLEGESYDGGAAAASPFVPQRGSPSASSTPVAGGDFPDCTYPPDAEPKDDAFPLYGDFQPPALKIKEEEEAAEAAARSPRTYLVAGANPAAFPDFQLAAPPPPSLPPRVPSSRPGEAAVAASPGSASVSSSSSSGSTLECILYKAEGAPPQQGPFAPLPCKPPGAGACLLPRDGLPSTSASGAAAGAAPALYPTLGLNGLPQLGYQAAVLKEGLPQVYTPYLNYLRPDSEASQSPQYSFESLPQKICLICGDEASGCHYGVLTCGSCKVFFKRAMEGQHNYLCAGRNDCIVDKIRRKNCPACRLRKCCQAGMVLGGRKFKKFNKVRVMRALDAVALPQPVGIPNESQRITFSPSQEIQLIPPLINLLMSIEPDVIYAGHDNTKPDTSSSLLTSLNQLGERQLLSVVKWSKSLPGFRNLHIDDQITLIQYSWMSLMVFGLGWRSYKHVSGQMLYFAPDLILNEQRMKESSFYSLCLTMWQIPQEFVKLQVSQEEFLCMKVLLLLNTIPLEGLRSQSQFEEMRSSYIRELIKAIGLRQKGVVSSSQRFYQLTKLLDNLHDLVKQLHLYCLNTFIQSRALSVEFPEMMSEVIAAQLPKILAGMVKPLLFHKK
How it was run: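 Rabbit uterine cytosol in Tris buffer pH 7.4 with EDTA, DTT and molybdate was incubated with 3H-R5020 and test compound (5% DMSO final) at 4 °C for about 18 h. Bound ligand was separated with dextran-coated charcoal and counted by scintillation; IC50 is 50% radioligand displacement, with nonspecific binding defined by excess unlabelled ligand.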

Row | SMILES | Osteoblast Cell Proliferation, 3H-thymidine incorporation vs control (100%) ([1]; 10^-6) [%] | Osteoblast Cell Proliferation, 3H-thymidine incorporation vs control (100%) ([1]; 10^-7) [%] | Osteoblast Cell Proliferation, 3H-thymidine incorporation vs control (100%) ([1]; 10^-8) [%] | Osteoblast Cell Proliferation, 3H-thymidine incorporation vs control (100%) ([1]; 10^-9) [%] | Osteoblast Cell Proliferation, 3H-thymidine incorporation vs control (100%) ([1]; 10^-10) [%] | IC50 [2] [µM]
1 | COc1ccc(C2=NN(C(=O)c3ccc(Br)cc3)CCC2)cc1 [Compound 190] | 121 | 135 | 130 | 139 | 158 | 100
2 | O=C(c1ccccc1)N1CCCC(c2ccc(Cl)cc2)=N1 [Compound 191, 1-Benzoyl-3-(4-chlorophenyl)-1,4,5,6-tetrahydropyridazine] | 86 | 133 | 126 | 133 | 123 | 100
3 | Cc1ccc(C(=O)N2CCCC(c3ccc(Cl)cc3)=N2)cc1 [Compound 192] | 115 | 131 | 128 | 132 | 148 | 100
4 | O=C(c1ccc(Cl)cc1)N1CCCC(c2ccc(Cl)cc2)=N1 [Compound 193] | 107 | 161 | 162 | 190 | 208 | 10
5 | COc1ccc(C(=O)N2CCCC(c3ccc(Cl)cc3)=N2)cc1 [Compound 194] | 93 | 130 | 136 | 138 | 144 | 100
6 | CC(C)(C)c1ccc(C(=O)N2CCCC(c3ccc(Cl)cc3)=N2)cc1 [Compound 195] | 103 | 114 | 125 | 127 | 136 | 100
7 | O=C(c1ccccc1)N1CCCC(c2ccccc2)=N1 [Compound 196] | 102 | 97 | 102 | 92 | 104 | 100
8 | CC(C)(C)c1ccc(C(=O)N2CCCC(c3ccccc3)=N2)cc1 [Compound 197] | 87 | 89 | 91 | 81 | 52 | 100
9 | O=C(c1ccc(Br)cc1)N1CCCC(c2ccc(Cl)cc2)=N1 [Compound 198] | 94 | 97 | 112 | 99 | 85 | 10
10 | O=C(c1cccc(Cl)c1)N1CCCC(c2ccc(Cl)cc2)=N1 [Compound 199] | 105 | 104 | 96 | 83 | 61 | 100
11 | O=C(c1ccc(Cl)c(Cl)c1)N1CCCC(c2ccc(Cl)cc2)=N1 [Compound 200] | 97 | 109 | 107 | 120 | 88 | 5
12 | COc1ccc(C2=NN(C(=O)c3ccc(C(C)(C)C)cc3)CCC2)cc1 [Compound 201] | 89 | 117 | 91 | 69 | 52 | 100
13 | O=C(c1ccc([N+](=O)[O-])cc1)N1CCCC(c2ccc(Cl)cc2)=N1 [Compound 202] | 98 | 108 | 110 | 116 | 128 | 0.279
14 | O=C(c1ccc([N+](=O)[O-])cc1)N1CCCC(c2ccc(F)cc2)=N1 [Compound 203] | 73 | 85 | 102 | 98 | 106 | 0.978
15 | O=C(c1ccc(Cl)cc1)N1CCCC(c2ccc(F)cc2)=N1 [Compound 204] | 79 | 109 | 105 | 101 | 109 | 3
16 | O=C(c1ccc(Cl)c(Cl)c1)N1CCCC(c2ccc(F)cc2)=N1 [Compound 205] | 92 | 115 | 140 | 141 | 138 | 0.263
17 | O=C(c1ccc(Cl)c(Cl)c1)N1CCCC(c2ccc(Cl)c(Cl)c2)=N1 [Compound 216] | 105 | 108 | 105 | 96 | 100 | 0.103
18 | O=C(c1ccc([N+](=O)[O-])cc1)N1CCCC(c2ccc(Cl)c(Cl)c2)=N1 [Compound 217] | 86 | 87 | 91 | 72 | 52 | 0.102
19 | O=C(c1cccc(C(F)(F)F)c1)N1CCCC(c2ccc(Cl)c(Cl)c2)=N1 [Compound 218] | 112 | 115 | 119 | 107 | 109 | 1.98
20 | COP(=O)(c1ccccc1)N1CCCC(c2ccccc2)=N1 (stereo not drawn) [Compound 252] | 75 | 86 | 79 | 97 | 86 | 10
21 | CCOP(=O)(c1ccccc1)N1CCCC(c2ccccc2)=N1 (stereo not drawn) [Compound 253] | 151 | 124 | 143 | 142 | 157 | 0.688
22 | CCOP(=O)(c1ccccc1)N1CCCC(c2ccc(Cl)c(Cl)c2)=N1 (stereo not drawn) [Compound 255] | 107 | 125 | 139 | 132 | 145 | 0.204
23 | CC(C)OP(=O)(c1ccccc1)N1CCCC(c2ccc(Cl)c(Cl)c2)=N1 (stereo not drawn) [Compound 256] | 97 | 100 | 104 | 128 | 116 | 0.0955
